Measured values reported in article PMC7998250, “Temperate Zone Plant Natural Products—A Novel Resource for Activity against Tropical Parasitic Diseases” (Pharmaceuticals, 2021).
Like-named read-outs stand apart in the source and are kept apart here.

Columns and labels:
[1] = test system: T. evansi bloodstream form; assay: Initial screen, T. evansi bloodstream form, Alamar Blue; format: cell-based, Trypanosoma evansi; conditions: for activity at 1 µM / inhibition of growth at 1 µM: Trypanosoma evansi; for inhibition of growth at 1 µM: read-out: initial hit T.e
Outline: (§1)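 Bloodstream-form T. evansi Antat 3/3 and T. brucei Lister 427 were grown in HMI-11 with 10% FBS at 37 °C. Parasites were plated at 1×10^5 cells/mL with compound at 1 μM (T. evansi) or 2 μM (T. brucei) for 48 h, and growth was read by Alamar Blue relative to 1% DMSO controls (n = 6).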

[2] = test system: L. mexicana axenic amastigotes; assay: Concentration-response EC50, L. mexicana axenic amastigotes (WT); format: cell-based, Leishmania mexicana
Description: (§2) Initial hits from the parasite panel screen were taken forward in log concentration versus normalised response assays to estimate the half maximal effective concentration (EC50) in hit species as well as the half maximal cytotoxic concentrations (CC50) in the human hepatoma cell line HepG2 as a preliminary test for selectivity. Using CC50/EC50 to define the selectivity index (SI), the selectivity for each compound in a defined species compared to a human cell line was estimated and compared to the EC50 (Figure 3).
(§3) EC50 values were determined by serial two-fold dilution of each compound in 96 well plates. Culture conditions and viability assays were as stated for the initial screen, with some exceptions. L. mexicana and L. donovani axenic amastigotes were seeded at 2 × 10^6 cell/s mL, T. brucei and T. evansi were seeded at 2 × 10^5 cells/mL. For cytotoxicity studies, HepG2 cells were seeded at 1 × 10^5 cells/mL, incubated for 48 h and viability was assessed using the Alamar Blue assay [66, 67]. […] Normalised growth and viability data (compared to untreated controls) were plotted against Log10 concentration to estimate EC50 in GraphPad (Prism v6).

[3] = test system: L. mexicana axenic amastigotes; assay: Initial screen, L. mexicana axenic amastigotes, Alamar Blue; format: cell-based, Leishmania mexicana; conditions: for initial hit against L. mexicana: growth inhibited by ≥80%; for activity at 2 µM / inhibition of growth at 2 µM: Leishmania mexicana; for inhibition of growth at 2 µM: read-out: initial hit L.m
Outline: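 Purified temperate plant natural products from a commercial library (1 mg/mL in DMSO) were tested against Leishmania mexicana axenic amastigotes at a final 2 μM. Parasites were seeded at 1 × 10^6 cells/mL in 96-well plates containing 200 μL culture and incubated 72 h. Growth was measured by Alamar Blue and normalised to DMSO controls (1% v/v), with triplicates over two biological replicates (n = 6).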

[4] = test system: T. brucei bloodstream form; assay: Initial screen, T. brucei bloodstream form, Alamar Blue; format: cell-based, Trypanosoma brucei brucei; conditions: for activity at 2 µM / inhibition of growth at 2 µM: Trypanosoma brucei; for initial hit against T. brucei: growth reduced by ≥50%; for inhibition of growth at 2 µM: read-out: initial hit T.b
Outline: as §1

P. falciparum 3D7 = assay: Concentration-response EC50, P. falciparum 3D7; format: cell-based; conditions: Plasmodium falciparum
Description: This is not surprising as the rate of kill is a result of the mechanism of cell death and, given their structural similarity, these three bisobolane sesquiterpene glycosides likely share the same target(s), albeit with some differences in affinity. The rate of kill, relatively, falls between that of atovaquone and dihydroartemisinin and is more similar to that of chloroquine.

T. brucei = assay: Concentration-response EC50, T. brucei; format: cell-based, Trypanosoma brucei brucei; conditions: 48 h
Description: as §2, §3

[5] = mean % growth compared to a normalised control with same concentration of DMSO solvent, initial screen, read-out: % growth T. evansi
[6] = Leishmania mexicana, 72 h, read-out: L. mexicana EC50, axenic amastigotes, 72 h
[7] = read-out: % growth L. mexicana, mean % growth compared to a normalised control with same concentration of DMSO solvent, initial screen
[8] = mean % growth compared to a normalised control with same concentration of DMSO solvent, initial screen, read-out: % growth T. b. brucei
[9] = 3D7, read-out: P. falciparum 3D7 EC50
[10] = Trypanosoma brucei, read-out: T. brucei EC50, bloodstream form, 48 h
[11] = initial screen, compared to a normalised control with same concentration of DMSO solvent
[12] = read-out: mean % growth, T. evansi, initial screen, compared to a normalised control with same concentration of DMSO solvent
[13] = read-out: mean % growth, L. mexicana, initial screen, compared to a normalised control with same concentration of DMSO solvent
[14] = read-out: mean % growth, T. b. brucei, initial screen, compared to a normalised control with same concentration of DMSO solvent

Row | SMILES | activity at 1 µM [1, 5] [%] | EC50 [2, 6] [nM] | initial hit against L. mexicana ([3]; 2 μM) | activity at 2 µM [3, 7] [%] | inhibition of growth at 2 µM ([3]; 2 μM, x = initial hit) [%] | activity at 2 µM [4, 8] [%] | inhibition of growth at 1 µM [1] [%] | EC50 (P. falciparum 3D7; [9]) [nM] | EC50 (T. brucei; [10]) [nM] | initial hit against T. brucei ([4]; 2 μM) | inhibition of growth at 2 µM [4] [%] | activity at 2 µM [3, 13] [%] | also measured
1 | CC1=CC(O)(CC(C)C2(C)CC=C3C4=CCC5C(C)(C)C(O)CCC5(C)C4CCC32C)OC1=O (centres unmarked) [Compound 700022] | 70.8 | 250 | initial hits | 0.54 | > 80 | 53.5 |  |  |  |  |  |  | EC50 ([2]; Leishmania mexicana, read-out: WT EC50, L. mexicana WT axenic amastigotes): 240 nM
2 | CC1OC(OC2C(OC(=O)C3CC[C@@H]4[C@H](C3)OC3(CC(OC(=O)/C=C/c5ccccc5)[C@@H](C)CO3)C43CO3)OC(CO)C(O)C2O)C(O)C(O)C1O (some centres unmarked) [Compound 700042] |  |  |  | 79.1 |  |  | > 50 | 190 | 410 | initial hits | > 50 |  | activity at 1 µM ([1]; read-out: % growth T. evansi, mean % growth compared to a normalised control with same concentration of DMSO solvent, initial screen): 40.2%; activity at 2 µM ([4]; read-out: % growth T. b. brucei, mean % growth compared to a normalised control with same concentration of DMSO solvent, initial screen): 1.6%
3 | CC1=CC(O)(CC(C)C2(C)CCC3C4=CCC5C(C)(CCC(O)C5(C)C)C4=CCC32C)OC1=O (centres unmarked) [Compound 700107] | 66.5 | 260 | initial hits | 8.1 | > 80 | 85.2 |  |  |  |  |  |  | 
4 | CC1=CC(O)(CC(C)C2(C)CC=C3C4=CCC5C(C)(C)C(=O)CCC5(C)C4CCC32C)OC1=O (centres unmarked) [Compound 700136] | 76.2 | 210 | initial hits | -0.4 | > 80 | 104 |  |  |  |  |  |  | 
5 | C/C(=C/C(=O)CC(C)C1CCC2(C)C3=CCC4C(C)(C)C(=O)CCC4(C)C3CCC12C)C(=O)O (centres unmarked) [Compound 700240] | 120 | 510 | initial hits | -10.1 | > 80 | 72.9 |  |  |  |  |  |  | 
6 | C=C1C(=O)OC2CC(C)C3C=CC(=O)C3(C)C(OC(C)=O)C12 (centres unmarked) [Compound 701155] |  |  | initial hits |  |  |  | > 50 | 2900 |  | initial hits |  |  | mean % growth, T. evansi [1, 11]: 1.0%; EC50 ([2]; read-out: L. mexicana EC50, axenic amastigotes, 72 h): 230 nM; mean % growth, L. mexicana [3, 11]: -0.28%; EC50 (T. brucei; read-out: T. brucei EC50, bloodstream form): 150 nM; mean % growth, T. b. brucei [4, 11]: -0.8%
7 | C=C1C(=O)OC2CC(C)C3C=CC(=O)C3(C)C(OC(=O)C(C)C)C12 (centres unmarked) [Compound 701157] |  | 200 | initial hits |  |  |  | > 50 | 2100 | 290 | initial hits | > 50 | 0.07 | activity at 1 µM [1, 12]: -4.3%; inhibition of growth at 2 µM [3]: > 80%; activity at 2 µM [4, 14]: -1.8%
8 | C=C1C(=O)OC2CC(C)C3C=CC(=O)C3(C)C(OC(=O)C(C)CC)C12 (centres unmarked) [Compound 701158] |  | 240 | initial hits |  |  |  | > 50 | 1500 | 310 | initial hits | > 50 | -1.7 | activity at 1 µM [1, 12]: 0.454%; inhibition of growth at 2 µM [3]: > 80%; activity at 2 µM [4, 14]: -1.3%
9 | C=C1C(=O)OC2CC(C)C3C(OC)CC(=O)C3(C)C(OC(=O)C(C)CC)C12 (centres unmarked) [Compound 701159] |  | 870 | initial hits |  | > 80 |  |  |  |  | initial hits |  | 1.5 | activity at 1 µM ([1]; initial screen, compared to a normalised control with same concentration of DMSO solvent, read-out: mean % growth, T. evansi): 82%; EC50 (P. falciparum 3D7; 3D7, intraerythrocytic, read-out: P. falciparum 3D7 EC50): 4600 nM; EC50 (T. brucei; Trypanosoma brucei, bloodstream form, read-out: T. brucei EC50): 390 nM; activity at 2 µM ([4]; initial screen, compared to a normalised control with same concentration of DMSO solvent, read-out: mean % growth, T. b. brucei): 13.7%; inhibition of growth at 2 µM ([4]; 2 μM, x = initial hit): > 50%
